Laboratory results taken from article PMC8305076, “Comprehensive Evaluation of Biological Effects of Pentathiepins on Various Human Cancer Cell Lines and Insights into Their Mode of Action” (International Journal of Molecular Sciences, 2021).

Tests used:
GR/CAT = GR/CAT inhibition (summary of off-target assays); type: biochemical; parameters: key: no impact (0); weak impact (+); strong impact (++); conditions: summary grade
Procedure: To assess the specificity of inhibitors toward the GPx1, we performed enzymatic assays with other relevant antioxidant enzymes. These included the glutathione reductase (GR; yeast-derived), which is an auxiliary component of the GPx1 assay, and catalase (CAT; bovine), a key redox enzyme that fulfils a similar enzymatic task as the GPx1 by detoxifying hydrogen peroxide. None of the pentathiepins altered the activity of either enzyme at a concentration of 25 µM (Figure 5b,c).
Off-target assays were conducted to assess the specificity of the pentathiepins for inhibiting the GPx1; these were the activities of GR and CAT (from bovine liver) that have previously been described. As the baker’s yeast GR is an important component in the GPx assay, its inhibition by pentathiepins had to be excluded. A fixed pentathiepin concentration of 25 µM was tested in triplicate, following the same principle as mentioned before, by monitoring the consumption of NADPH by the GR at λ = 340 nm while GSSG is reduced back to GSH. All assay components were prepared in potassium phosphate buffer (50 mM, pH 7.4, 1.1 mM EDTA, 0.01% Triton-X solution), except for the inhibitor that was diluted in DMF. Subsequently, 180 µL of buffer was added per well followed by 30 µL of a 2.0 U/mL GR solution, 30 µL of a 2.0 mM NADPH solution, and 30 µL of a 250 µM pentathiepin solution or 30 µL of DMF as negative control. Finally, to start the reaction, 30 µL of a 2.5 mM GSSG solution was added, resulting in final concentrations of 0.2 U/mL of GR, 0.2 mM of NADPH, 25 µM of pentathiepin, and 0.25 mM of GSSG. After measuring the decrease of NADPH every 15 s for 30 min at room temperature, the relative inhibition of the GR was calculated by relating the activity of the pentathiepin-treated samples to the negative control.
The CAT activity assay is based on the principle that in the presence of H2O2 and heat, and dichromate in acetic acid is reduced to chromic acetate via perchromic acid as unstable intermediate. Here, the amount of chromic acetate is measured twice, once directly after adding H2O2 (t0min) and once again after the CAT (bovine origin) split the H2O2 for a period of 10 min (t10min) in the presence or absence of a putative inhibitor. Samples in this assay included a blank (+CAT/+DMF/−H2O2), a H2O2 standard (−CAT/+DMF/+H2O2), a negative control (+CAT/+DMF/+H2O2), and the test conditions (+CAT/+25 µM pentathiepin/+H2O2). For each condition, 3.0 mL of 0.002 mg/mL CAT in potassium phosphate buffer (50 mM, pH 7.4, EDTA 1.1 mM, Triton-X 0.01%) were prepared in a glass tube. Additionally, two tubes were prepared per condition each containing 2 mL of a reagent containing 1 part of an aqueous solution of K2Cr2O7 (5%) and 2 parts glacial acetic acid. Subsequently, the solvent or inhibitors were added, and the tubes placed on a shaker for 5 min. To start the reaction, 61.8 µL of a 30% H2O2 solution was added and then mixed, and immediately 1 mL was transferred to one tube containing the K2Cr2O7/acetic acid solution (t0min). The remaining 2 mL was incubated on a shaker for 10 min, and then the previous step was repeated (t10min). Finally, all tubes were boiled in a water bath and cooled down to room temperature, and then absorbance was measured at λ = 570 nm and the instrument was blanked with the blank solution. The difference in absorbance between t0min and t10min was calculated, and all samples were related to the negative control.

seven cancer cell lines [1] = assay: DCFDA flow cytometric ROS assay, acute; type: cell-based, human; conditions: 25 µM, 15 min, vs solvent control
seven cancer cell lines [2] = assay: cell cycle analysis (summary); type: cell-based, human; parameters: key: no impact (0); weak impact (+); strong impact (++); conditions: summary grade
Procedure: The potent cytotoxicity and the potential to inhibit the proliferation of cancer cells accompanied by DNA damage effects raised the question as to whether cell cycle progression might be affected as a result of treatment with pentathiepins.
Cells were harvested by trypsinization, collected in 1.5 mL tubes, and washed twice with PBS by centrifuging for 5 min at 500× g and discarding the supernatant after every step. For fixation, 500 µL of ice-cold ethanol (70%) was added dropwise under vortexing with a subsequent incubation on ice for 30 min. Then, the cells were centrifuged for 10 min at 4000 rpm and 4 °C, the supernatant was removed, and the cells were resuspended in 500 µL of PBS containing 25 µg/mL of PI and 100 µg/mL of RNase. The staining solution was incubated for 30 min, and the cell suspension was measured at λEx/Em = 488/655–730 nm using a MACSquant Analyzer 10 (Miltenyi Biotec, Teterow, Germany).

What does the source list for `CCOc1c2c(c3cnc4[nH]c(-c5ccc(OC)cc5)cc4n13)SSSSS2` [Compound 1, 11-Ethoxy-2-(4-methoxyphenyl)-3H-[1,2,3,4,5]pentathiepino[6′,7′:3,4]pyrrolo[1,2-a]pyrrolo[2,3-e]pyrazine]?
GR/CAT inhibition (GR/CAT): 0; intracellular ROS levels (seven cancer cell lines [1]): did not change the intracellular ROS levels in any of the cell lines; G0/G1 arrest (seven cancer cell lines [2]): +; G2/M arrest (seven cancer cell lines [2]): 0

With `CCOc1c2c(c3ccc(C(=O)N4CCCCC4)cn13)SSSSS2` [Compound 2, (6-Ethoxy-[1,2,3,4,5]pentathiepino[6,7-a]indolizin-9-yl)(piperidinyl)methanone] as the molecule, how does the GR/CAT inhibition (GR/CAT) read?
The GR/CAT inhibition was 0.

And the “intracellular ROS levels” value (seven cancer cell lines [1])?
The value was “burst of ROS in all cell lines”.

And the G0/G1 arrest (seven cancer cell lines [2])?
Its G0/G1 arrest is 0.

And the G2/M arrest (seven cancer cell lines [2])?
The G2/M arrest was “+”.

Which results are given for `CCOc1c2c(c3ccc(C(=O)N4CCOCC4)cn13)SSSSS2` [Compound 3, (6-Ethoxy-[1,2,3,4,5]pentathiepino[6,7-a]indolizin-9-yl)(morpholino)methanone]?
GR/CAT inhibition (GR/CAT): 0; intracellular ROS levels (seven cancer cell lines [1]): burst of ROS in all cell lines; G0/G1 arrest (seven cancer cell lines [2]): 0; G2/M arrest (seven cancer cell lines [2]): +

With `CCOc1c2c(c3ccc(C(=O)N(CC)CC)cn13)SSSSS2` [Compound 4, 6-Ethoxy-N,N’-diethyl-[1,2,3,4,5]pentathiepino[6,7-a]indolizine-9-carboxamide] as the molecule, how does the GR/CAT inhibition (GR/CAT) read?
Its GR/CAT inhibition is 0.

And the “intracellular ROS levels” value (seven cancer cell lines [1])?
Its value is “burst of ROS in all cell lines”.

And the G0/G1 arrest (seven cancer cell lines [2])?
Its G0/G1 arrest is 0.

And the G2/M arrest (seven cancer cell lines [2])?
Its G2/M arrest is “+”.

What does the source list for `CCOc1c2c(c3ccc(C(=O)N4CCN(C(=O)c5ccc(F)cc5)CC4)cn13)SSSSS2` [Compound 5, (6-Ethoxy-[1,2,3,4,5]pentathiepino[6,7-a]indolizin-9-yl)(4-(4-fluorobenzoyl)piperazinyl)methanone]?
GR/CAT inhibition (GR/CAT): 0; intracellular ROS levels (seven cancer cell lines [1]): burst of ROS in all cell lines; G0/G1 arrest (seven cancer cell lines [2]): 0; G2/M arrest (seven cancer cell lines [2]): +

Which results are given for `CCOc1c2c(c3ccc(C(=O)N4CCN(S(=O)(=O)c5ccc(C)cc5)CC4)cn13)SSSSS2` [Compound 6, (6-Ethoxy-[1,2,3,4,5]pentathiepino[6,7-a]indolizin-9-yl)(4-tosylpiperazinyl)methanone]?
GR/CAT inhibition (GR/CAT): 0; intracellular ROS levels (seven cancer cell lines [1]): only in three of the panel; G0/G1 arrest (seven cancer cell lines [2]): +; G2/M arrest (seven cancer cell lines [2]): 0
